Experimental data as given in US10131652B2, “Pyrimidinyloxy benzene derivatives as herbicides” (E. I. DU PONT DE NEMOURS AND COMPANY, priority 2014, dated 2018).

Assays:
Assay type in all cases: in vivo
[1] = tested on: Italian ryegrass (Lolium multiflorum); test: Test B pre-/postemergence plant response
Procedure, shortened: (§1)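 Greenhouse pots, loam/sand soil; compound formulated with surfactant in non-phytotoxic solvent. Preemergence soil spray and postemergence spray at 1–2 leaf stage run simultaneously. Visual injury, 0–100, about 10 days post-treatment.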

[2] = tested on: barnyardgrass (Echinochloa crus-galli); test: Test B pre-/postemergence plant response
Procedure, shortened: as §1

[3] = tested on: corn (Zea mays); test: Test B pre-/postemergence plant response
Procedure, shortened: as §1

[4] = tested on: giant foxtail (Setaria faberii); test: Test B pre-/postemergence plant response
Procedure, shortened: as §1

[5] = tested on: kochia (Kochia scoparia); test: Test B pre-/postemergence plant response
Procedure, shortened: as §1

[6] = tested on: pigweed (Amaranthus retroflexus); test: Test B pre-/postemergence plant response
Procedure, shortened: as §1

[7] = tested on: ragweed (common ragweed, Ambrosia elatior); test: Test B pre-/postemergence plant response
Procedure, shortened: as §1

[8] = tested on: wheat (Triticum aestivum); test: Test B pre-/postemergence plant response
Procedure, shortened: as §1

[9] = tested on: blackgrass (Alopecurus myosuroides); test: Test B postemergence plant response
Procedure, shortened: (§2)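 Injury was assessed visually about 10 days after treatment, scored from 0 (no effect) to 100 (complete control) by comparison with untreated controls. Test chemicals had been applied postemergence to potted plants at the one- to two-leaf stage, grown in loam soil and sand in a greenhouse.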

[10] = tested on: galium (catchweed bedstraw, Galium aparine); test: Test B postemergence plant response
Procedure, shortened: as §2

[11] = tested on: barnyardgrass (Echinochloa crus-galli); test: Test C flooded paddy test plant response; conditions: Flood, 250 g ai/ha; scale of 0 to 100 where 0 is no effect and 100 is complete control; 13 to 15 days
Procedure, shortened: (§3)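 Plants grown to the 2-leaf stage; pots flooded to 3 cm above soil, test compounds applied directly to paddy water, depth maintained throughout. Greenhouse for 13 to 15 days, then visual rating versus controls on a 0–100 scale (0 no effect, 100 complete control).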

[12] = tested on: ducksalad (Heteranthera limosa); test: Test C flooded paddy test plant response; conditions: Flood, 250 g ai/ha; scale of 0 to 100 where 0 is no effect and 100 is complete control; 13 to 15 days
Procedure, shortened: as §3

[13] = tested on: rice (Oryza sativa); test: Test C flooded paddy test plant response; conditions: Flood, 250 g ai/ha; scale of 0 to 100 where 0 is no effect and 100 is complete control; 13 to 15 days
Procedure, shortened: as §3

[14] = tested on: small-flower umbrella sedge (Cyperus difformis); test: Test C flooded paddy test plant response; conditions: Flood, 250 g ai/ha; scale of 0 to 100 where 0 is no effect and 100 is complete control; 13 to 15 days
Procedure, shortened: as §3

[15] = tested on: chickweed (common chickweed, Stellaria media); test: Test D postemergence plant response; conditions: for Chickweed plant response rating: scale 0 to 100 (0 no effect, 100 complete control)
Procedure, shortened: (§4)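 Plants grown in pots of peat moss–vermiculite medium with wetting agent and starter nutrients received postemergence applications of the formulated test chemicals at 2 to 18 cm height (1- to 4-leaf stage). After 13 to 15 days in a greenhouse, injury was scored visually against untreated controls, 0 (no effect) to 100 (complete control).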

[16] = tested on: kochia (Kochia scoparia); test: Test D postemergence plant response; conditions: for Kochia plant response rating: 31 g ai/ha, scale 0 to 100 (0 no effect, 100 complete control)
Procedure, shortened: as §4

[17] = tested on: wild oat (Avena fatua); test: Test D postemergence plant response; conditions: for Oat, Wild plant response rating: 31 g ai/ha, scale 0 to 100 (0 no effect, 100 complete control)
Procedure, shortened: as §4

[18] = 125 g ai/ha, postemergence, 0 to 100 scale, 0 no effect, 100 complete control
[19] = Postemergence, 500 g ai/ha, 0 to 100 scale (0 no effect, 100 complete control)
[20] = Preemergence, 125 g ai/ha, 0 to 100 scale (0 no effect, 100 complete control)
[21] = Preemergence, 500 g ai/ha, 0 to 100 scale where 0 is no effect and 100 is complete control
[22] = 62 g ai/ha, scale 0 to 100, 0 no effect, 100 complete control

## FC(F)(F)c1cc(-c2c(I)cccc2Oc2ncc(Cl)cn2)no1 [Compound 156]
[1]; [18]
  Plant response rating, Ryegrass, Italian: 30
[1]; [19]
  Plant response rating, Ryegrass, Italian: 70
[1]; [20]
  Ryegrass, Italian plant response rating: 0
[1]; [21]
  Plant response rating, Ryegrass, Italian: 0
[2]; [18]
  Plant response rating, Barnyardgrass: 0
[2]; [19]
  Plant response rating, Barnyardgrass: 20
[2]; [20]
  Barnyardgrass plant response rating: 0
[2]; [21]
  Plant response rating, Barnyardgrass: 20
[3]; [18]
  Plant response rating, Corn: 20
[3]; [19]
  Plant response rating, Corn: 40
[4]; [18]
  Plant response rating, Foxtail, Giant: 20
[4]; [19]
  Plant response rating, Foxtail, Giant: 90
[4]; [20]
  Foxtail, Giant plant response rating: 20
[4]; [21]
  Plant response rating, Foxtail, Giant: 80
[5]; [18]
  Plant response rating, Kochia: 90
[5]; [19]
  Plant response rating, Kochia: 90
[5]; [20]
  Kochia plant response rating: 20
[5]; [21]
  Plant response rating, Kochia: 40
[6]; [18]
  Plant response rating, Pigweed: 90
[6]; [19]
  Plant response rating, Pigweed: 100
[6]; [20]
  Pigweed plant response rating: 80
[6]; [21]
  Plant response rating, Pigweed: 100
[7]; [18]
  Plant response rating, Ragweed: 20
[7]; [19]
  Plant response rating, Ragweed: 40
[7]; [20]
  Ragweed plant response rating: 0
[7]; [21]
  Plant response rating, Ragweed: 0
[8]; [18]
  Plant response rating, Wheat: 20
[8]; [19]
  Plant response rating, Wheat: 30
[9]; [18]
  Plant response rating, Blackgrass: 20
[9]; [19]
  Plant response rating, Blackgrass: 40
[10]; [18]
  Plant response rating, Galium: 90
[10]; [19]
  Plant response rating, Galium: 100
[11]
  Barnyardgrass plant response rating: 0
[12]
  Ducksalad plant response rating: 0
[13]
  Rice plant response rating: 0
[14]
  Sedge, Umbrella plant response rating: 0
[15]; 8 g ai/ha
  Plant response rating (scale 0 to 100), Chickweed: 5
[15]; 16 g ai/ha
  Chickweed plant response rating: 5
[15]; 31 g ai/ha
  Chickweed plant response rating: 45
[15]; [22]
  Plant response rating, Chickweed: 70
[16]; 8 g ai/ha
  Plant response rating (scale 0 to 100), Kochia: 0
[16]
  Kochia plant response rating: 30
[16]; [22]
  Plant response rating, Kochia: 45
[17]; 8 g ai/ha
  Plant response rating (scale 0 to 100), Oat, Wild: 0
[17]
  Oat, Wild plant response rating: 0
[17]; [22]
  Plant response rating, Oat, Wild: 0

## N#Cc1cccc(Oc2ncc(Cl)cn2)c1-c1cc(C(F)(F)F)on1 [Compound 157]
[1]; [18]
  Plant response rating, Ryegrass, Italian: 90
[1]; [19]
  Plant response rating, Ryegrass, Italian: 100
[1]; [20]
  Ryegrass, Italian plant response rating: 20
[1]; [21]
  Plant response rating, Ryegrass, Italian: 90
[2]; [18]
  Plant response rating, Barnyardgrass: 20
[2]; [19]
  Plant response rating, Barnyardgrass: 60
[2]; [20]
  Barnyardgrass plant response rating: 20
[2]; [21]
  Plant response rating, Barnyardgrass: 80
[3]; [18]
  Plant response rating, Corn: 0
[3]; [19]
  Plant response rating, Corn: 40
[4]; [18]
  Plant response rating, Foxtail, Giant: 70
[4]; [19]
  Plant response rating, Foxtail, Giant: 80
[4]; [20]
  Foxtail, Giant plant response rating: 80
[4]; [21]
  Plant response rating, Foxtail, Giant: 100
[5]; [18]
  Plant response rating, Kochia: 90
[5]; [19]
  Plant response rating, Kochia: 100
[5]; [20]
  Kochia plant response rating: 100
[5]; [21]
  Plant response rating, Kochia: 100
[6]; [18]
  Plant response rating, Pigweed: 100
[6]; [19]
  Plant response rating, Pigweed: 100
[6]; [20]
  Pigweed plant response rating: 100
[6]; [21]
  Plant response rating, Pigweed: 100
[7]; [18]
  Plant response rating, Ragweed: 10
[7]; [19]
  Plant response rating, Ragweed: 50
[7]; [20]
  Ragweed plant response rating: 20
[7]; [21]
  Plant response rating, Ragweed: 70
[8]; [18]
  Plant response rating, Wheat: 50
[8]; [19]
  Plant response rating, Wheat: 70
[9]; [18]
  Plant response rating, Blackgrass: 70
[9]; [19]
  Plant response rating, Blackgrass: 90
[10]; [18]
  Plant response rating, Galium: 100
[10]; [19]
  Plant response rating, Galium: 100
[11]
  Barnyardgrass plant response rating: 0
[12]
  Ducksalad plant response rating: 40
[13]
  Rice plant response rating: 0
[14]
  Sedge, Umbrella plant response rating: 40
[15]; 4 g ai/ha
  Plant response rating (scale 0 to 100), Chickweed: 5
[15]; 8 g ai/ha
  Plant response rating (scale 0 to 100), Chickweed: 10
[15]; 16 g ai/ha
  Chickweed plant response rating: 50
[15]; 31 g ai/ha
  Chickweed plant response rating: 75
[16]; 4 g ai/ha
  Plant response rating (scale 0 to 100), Kochia: 0
[16]; 8 g ai/ha
  Plant response rating (scale 0 to 100), Kochia: 20
[16]
  Kochia plant response rating: 90
[17]; 4 g ai/ha
  Plant response rating (scale 0 to 100), Oat, Wild: 0
[17]; 8 g ai/ha
  Plant response rating (scale 0 to 100), Oat, Wild: 0
[17]
  Oat, Wild plant response rating: 10
